Assay: animal full PK study in hamsters (NCA and PK model)
Type: in vivo
Settings: hamster; for Tmax: median (range)
Protocol: Animal PK data for analysis were collected from preclinical studies performed at ChongKunDang laboratory. All animal experiments were performed with relevant guidelines and regulations, and the protocol was approved by the Institutional Animal Care and Use Committee (IACUC) of ChongKunDang (Approval number: S-13-015). A single dose of CKD519 was administered either orally or via intravenous infusion to hamsters (intravenous dose of 0.5 mg/kg, oral dose of 3, 15, or 45 mg/kg, n = 30); rats (intravenous dose of 0.5 mg/kg, oral dose of 5, 15, or 45 mg/kg, n = 20); and monkeys (intravenous dose of 0.1 mg/kg, oral dose of 1, 5, or 30 mg/kg, n = 16). The identical solution was administered to all animal species in the fasted state. Plasma CKD519 concentration was measured before and at 0.083, 0.25, 0.5, 1, 2, 4, 8, and 24 h after administration in hamsters and rats, and before and at 0.083, 0.25, 0.5, 1, 2, 4, 6, 8, 12, 24, 48, and 72 h after administration in monkeys. Two hamsters given identical doses were sampled in a rotating manner.
The plasma samples were stored at −70 °C before the analysis and were thawed at room temperature. […] A sensitive, specific, and validated liquid chromatography coupled with a tandem mass spectrometer (HPLC-MS/MS) assay was used for the determination of CKD519 concentration in animal plasma samples. A structural analogue of CKD519 was used as the internal standard. The validated working range was from 2 ng/mL (the lower limit of quantification, LLOQ) to 20,000 ng/mL. Quality control (QC) samples were analyzed together with the study samples. Intra-day and inter-day precision and accuracy results were within the acceptance criteria based on the Ministry of Food and Drug Safety (MFDS) guidelines. An exploratory data analysis was performed through non-compartmental analysis (NCA) using the NonCompart package (developed by Bae, version 0.4.4) in R (version 3.5.1, The R Foundation, Vienna, Austria).
Using the PK data from each species, nonlinear mixed-effect modeling was conducted using NONMEM (version 7.4, Icon Development Solutions, Ellicott City, MD, USA) reflecting the clues from NCA. The first-order conditional estimation method with interaction (FOCE-I) was used whenever applicable. The adequacy of the model was checked using changes in the objective function value (OFV), visual inspection of various diagnostic plots (goodness-of-fit (GOF) plot), and methods of visual predictive check (VPC) and bootstrap were used for the diagnostics on the model stability and parameter reliability. The significance of model improvement was evaluated using a likelihood-ratio test (LRT). In the nested models, the result was considered statistically significant if the OFV decreased more than 3.84 (p-value < 0.05, degree of freedom (df) = 1) and 5.99 (p-value < 0.05, df = 2). The degree of freedom is defined as the gap of the numbers of parameters of the two subsequent models that are being compared. In the case of non-nested models, the Akaike information criteria (AIC) value was used to select the model that best described the data. R (version 3.5.1., R Foundation for Statistical Computing, Vienna, Austria) was used for data preparation, NCA, graphical analysis, model diagnostics, and statistical summaries.
Initially, a two-compartment model with first-order absorption was developed to describe the biphasic curve, and several absorption structures (e.g., zero-order with absorption lag time, Weibull-type absorption) were applied to the base model if needed. The change in absolute bioavailability (F) by dose levels was also considered. […]

[1] = PK model, final estimate (%RSE)
[2] = intravenous 0.5 mg/kg, NCA, mean ± SD
[3] = two-compartment PK model, final estimate (%RSE)

Compound: COc1cc(F)c(C(C)C)cc1C1=C(CN2C(=O)O[C@H](c3cc(C(F)(F)F)cc(C(F)(F)F)c3)[C@@H]2C)CC(C)(C)CC1 [CKD519]
- α (scale parameter of Weibull absorption) [1]: 4.20 (4.14%)
- β (shape parameter of Weibull absorption) [1]: 2.62 (4.47%)
- AUClast [2]: 8760 ± 635 ng·h/mL
- V/F * (V for intravenous) [2]: 138 ± 89.9 mL
- ke [2]: 0.0616 ± 0.0446 h⁻¹
- t1/2 [2]: 16.9 ± 14.1 h
- Tmax (intravenous 0.5 mg/kg, NCA): 0.083 (0.083–0.083) h
- AUClast (oral 3 mg/kg, NCA, mean ± SD): 6140 ± 471 ng·h/mL
- CL/F (oral 3 mg/kg, NCA, mean ± SD): 34.7 ± 3.08 mL/h
- Cmax (oral 3 mg/kg, NCA, mean ± SD): 659 ± 89.3 ng/mL
- V/F (oral 3 mg/kg, NCA, mean ± SD): 1570 ± 163 mL
- ke (oral 3 mg/kg, NCA, mean ± SD): 0.0223 ± 0.00294 h⁻¹
- t1/2 (oral 3 mg/kg, NCA, mean ± SD): 31.5 ± 4.41 h
- Tmax (oral 3 mg/kg, NCA): 3.5 (3–4) h
- AUClast (oral 15 mg/kg, NCA, mean ± SD): 18800 ± 4310 ng·h/mL
- CL/F (oral 15 mg/kg, NCA, mean ± SD): 66.6 ± 20.1 mL/h
- Cmax (oral 15 mg/kg, NCA, mean ± SD): 3250 ± 465 ng/mL
- V/F (oral 15 mg/kg, NCA, mean ± SD): 2460 ± 162 mL
- ke (oral 15 mg/kg, NCA, mean ± SD): 0.0268 ± 0.00613 h⁻¹
- t1/2 (oral 15 mg/kg, NCA, mean ± SD): 26.8 ± 5.23 h
- Tmax (oral 15 mg/kg, NCA): 4 (3–4) h
- AUClast (oral 45 mg/kg, NCA, mean ± SD): 26700 ± 2330 ng·h/mL
- CL/F (oral 45 mg/kg, NCA, mean ± SD): 145 ± 9.52 mL/h
- Cmax (oral 45 mg/kg, NCA, mean ± SD): 3160 ± 614 ng/mL
- V/F (oral 45 mg/kg, NCA, mean ± SD): 4330 ± 572 mL
- ke (oral 45 mg/kg, NCA, mean ± SD): 0.0338 ± 0.00311 h⁻¹
- t1/2 (oral 45 mg/kg, NCA, mean ± SD): 20.7 ± 1.76 h
- Tmax (oral 45 mg/kg, NCA): 4 (3–6) h
- CL [3]: 0.00377 (7.40%) L/h
- Q [3]: 0.00617 (10.3%) L/h
- Vc [3]: 0.00472 (9.43%) L
- Vp [3]: 0.0924 (9.78%) L

From article PMC6680430, “Quantitative Prediction of Human Pharmacokinetics and Pharmacodynamics of CKD519, a Potent Inhibitor of Cholesteryl Ester Transfer Protein (CETP)” (Pharmaceutics, 2019)
